Source: paper PMC10746543, “Design principles for cyclin K molecular glue degraders” (Nature Chemical Biology, 2023)
Where “and” joins values, the source holds several entries; their conditions need not be identical. Equal values may be shown once. Read-outs that look alike come from different tables or passages of the source.

Key:
[1] = test system: cyclin K–eGFP degradation reporter; test: Cyclin K reporter stability analysis (dual-color cyclin K–eGFP reporter); format: cell-based, human
How it was run: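 A 5 h treatment of HEK293T–Cas9 cells expressing the degradation reporter preceded flow cytometry; eGFP over mCherry, normalized to DMSO.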

CDK12–cyclin K and DDB1 = target: T1, CDK12–cyclin K and DDB1 (Homo sapiens, UniProt Q16531+Q9NYV4, K965R); test: TR-FRET ternary complex formation assay (compound titration); format: binding; conditions: for TR-FRET signal at compound concentration: replicate titrations
T1 construct: His6–CDK12 (a.a. 713–1,052); full-length or beta-propeller B domain deletion (ΔBPB: a.a. 396–705 deleted) constructs of His6–DDB1ΔBPB, StrepII–Avi–DDB1, or His6–Spy–DDB1; made in house; host or cells: Trichoplusia ni High Five insect cells (baculovirus)
T1 sequence (Q9NYV4 713-1052 K965R): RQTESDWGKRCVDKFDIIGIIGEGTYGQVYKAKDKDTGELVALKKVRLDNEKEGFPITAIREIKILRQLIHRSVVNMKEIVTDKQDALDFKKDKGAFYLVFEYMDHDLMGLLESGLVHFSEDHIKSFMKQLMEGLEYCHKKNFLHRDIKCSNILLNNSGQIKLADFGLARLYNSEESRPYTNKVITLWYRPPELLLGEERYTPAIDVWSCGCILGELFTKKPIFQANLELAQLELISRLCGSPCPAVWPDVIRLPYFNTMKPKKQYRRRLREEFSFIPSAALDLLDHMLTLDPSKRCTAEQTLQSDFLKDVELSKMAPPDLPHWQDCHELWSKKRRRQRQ
T1 sequence (O75909 1-267 partner): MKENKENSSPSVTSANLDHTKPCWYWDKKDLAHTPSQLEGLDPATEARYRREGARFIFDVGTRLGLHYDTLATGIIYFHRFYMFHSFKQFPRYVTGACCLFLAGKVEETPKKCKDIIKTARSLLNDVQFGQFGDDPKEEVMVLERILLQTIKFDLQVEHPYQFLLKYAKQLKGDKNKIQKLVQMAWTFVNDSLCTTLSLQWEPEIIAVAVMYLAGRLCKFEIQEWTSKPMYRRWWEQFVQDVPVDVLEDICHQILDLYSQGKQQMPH
T1 sequence (Q16531 whole entry): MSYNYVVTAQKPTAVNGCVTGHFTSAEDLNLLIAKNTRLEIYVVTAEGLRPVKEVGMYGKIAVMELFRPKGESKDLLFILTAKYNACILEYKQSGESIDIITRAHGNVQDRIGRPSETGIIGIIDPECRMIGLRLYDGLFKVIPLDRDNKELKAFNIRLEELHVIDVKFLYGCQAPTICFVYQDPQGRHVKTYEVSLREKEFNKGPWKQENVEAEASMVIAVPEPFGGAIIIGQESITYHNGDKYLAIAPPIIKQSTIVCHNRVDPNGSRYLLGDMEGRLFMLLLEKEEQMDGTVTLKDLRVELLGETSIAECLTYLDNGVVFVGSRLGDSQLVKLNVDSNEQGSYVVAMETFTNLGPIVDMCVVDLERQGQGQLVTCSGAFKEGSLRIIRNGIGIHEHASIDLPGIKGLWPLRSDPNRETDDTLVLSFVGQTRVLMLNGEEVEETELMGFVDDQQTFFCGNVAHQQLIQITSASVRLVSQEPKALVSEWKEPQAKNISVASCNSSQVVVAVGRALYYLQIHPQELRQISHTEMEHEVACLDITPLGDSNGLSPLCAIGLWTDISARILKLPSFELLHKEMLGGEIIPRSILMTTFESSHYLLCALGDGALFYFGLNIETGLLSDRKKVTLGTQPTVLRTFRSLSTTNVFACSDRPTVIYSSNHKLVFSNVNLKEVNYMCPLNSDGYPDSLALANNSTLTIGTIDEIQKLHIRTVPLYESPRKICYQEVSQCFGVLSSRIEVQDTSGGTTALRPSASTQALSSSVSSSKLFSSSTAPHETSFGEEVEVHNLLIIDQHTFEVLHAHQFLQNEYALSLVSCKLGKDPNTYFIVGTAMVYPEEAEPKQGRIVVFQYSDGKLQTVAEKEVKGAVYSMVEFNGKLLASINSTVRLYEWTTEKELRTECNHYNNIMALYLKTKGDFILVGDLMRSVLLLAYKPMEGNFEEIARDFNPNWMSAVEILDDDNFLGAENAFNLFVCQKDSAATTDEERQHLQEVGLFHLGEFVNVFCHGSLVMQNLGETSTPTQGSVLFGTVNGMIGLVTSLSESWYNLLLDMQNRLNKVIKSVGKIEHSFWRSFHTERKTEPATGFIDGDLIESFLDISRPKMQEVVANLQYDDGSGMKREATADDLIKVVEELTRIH
How it was run: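 Delayed (70 μs) time-resolved read; FRET computed as 520 nm over 490 nm emission.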

HEK293T cells = test: Drug sensitivity assay (CellTiter-Glo viability) with or without MLN4924 pretreatment; format: cell-based, human; conditions: for EC50: Homo sapiens, HEK-293T; for Toxicity rescue: MLN4924-mediated cytotoxicity rescue, 10 µM used where n.d.
How it was run: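 Viability of HEK293T–Cas9 cells was compared after 3-day drug treatment with or without 100 nM MLN4924 pretreatment (2 h, versus DMSO). Values are CellTiter-Glo signals relative to DMSO controls.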

[2] = source data sheet correlations, read-out: DC50
[3] = compound concentration 0.468 nM
[4] = compound concentration 7.92001 nM
[5] = compound concentration 15.84 nM
[6] = compound concentration 30.96 nM
[7] = compound concentration 62.6401 nM
[8] = compound concentration 125.28 nM
[9] = compound concentration 244.8 nM
[10] = compound concentration 993.601 nM
[11] = compound concentration 2001.6 nM
[12] = in vitro complex formation, 50 nM CDK12–cyclin K, 100 nM DDB1, text and figures, read-out: TR-FRET EC50
[13] = sheet MOESM7, read-out: log TR-FRET EC50 (converted)
[14] = source data sheet correlations, read-out: TR-FRET EC50
[15] = Supplementary Table 2, HEK293T viability, 72 h, compound alone, read-out: Cellular assays EC50

DC50 [1, 2] [nM] | TR-FRET signal at compound concentration (CDK12–cyclin K and DDB1; [3]) | TR-FRET signal at compound concentration (CDK12–cyclin K and DDB1; compound concentration 2.16 nM) | TR-FRET signal at compound concentration (CDK12–cyclin K and DDB1; compound concentration 3.6 nM) | TR-FRET signal at compound concentration (CDK12–cyclin K and DDB1; [4]) | TR-FRET signal at compound concentration (CDK12–cyclin K and DDB1; [5]) | TR-FRET signal at compound concentration (CDK12–cyclin K and DDB1; [6]) | TR-FRET signal at compound concentration (CDK12–cyclin K and DDB1; [7]) | TR-FRET signal at compound concentration (CDK12–cyclin K and DDB1; [8]) | TR-FRET signal at compound concentration (CDK12–cyclin K and DDB1; [9]) | TR-FRET signal at compound concentration (CDK12–cyclin K and DDB1; [10]) | TR-FRET signal at compound concentration (CDK12–cyclin K and DDB1; [11]) | EC50 (CDK12–cyclin K and DDB1; [12]) [nM] | EC50 (CDK12–cyclin K and DDB1; [13]) [nM] | EC50 (CDK12–cyclin K and DDB1; [14]) [nM] | SMILES | EC50 (HEK293T cells; [15]) [nM] | Toxicity rescue (HEK293T cells; Supplementary Table 2) [%] | other results
88 | 0.2923 and 0.3076 and 0.198 and 0.2218 | 0.3989 and 0.4255 and 0.2838 and 0.3021 | 0.6137 and 0.6924 and 0.4704 and 0.4752 | 1.224 and 1.234 and 0.9118 and 0.9562 | 2 and 2.2 and 1.736 and 1.809 | 3.161 and 3.3799 and 3.037 and 2.9897 | 3.7362 and 4.009 and 3.696 and 3.655 | 3.905 and 4.159 and 3.906 and 3.9109 | 4.008 and 4.194 and 3.9625 and 4.012 | 4.134 and 4.267 and 4.125 and 4.115 | 4.074 and 4.31 and 4.121 and 4.142 | 18 ± 1 | 17.7 | 17.7 | CC[C@H](CO)Nc1nc(NCCCc2ccc(C)c(C)c2)c2ncn(C(C)C)c2n1 [DS66] | > 10000 | 0 | –
– | – | – | – | – | – | – | – | – | – | – | – | – | – | – | CC[C@H](CO)Nc1nc(NCc2ccc(-c3ccc(-c4ccccc4)cc3)cc2)c2ncn(C(C)C)c2n1 [DS04] | > 10000 | 0 | DC50 ([1]; Supplementary Table 2, HEK293T cycK-eGFP reporter, 5 h, read-out: Cellular assays DC50): > 10000 nM; TR-FRET signal at compound concentration (CDK12–cyclin K and DDB1; compound concentration 4.68 nM): 0.1371 and 0.1443; TR-FRET signal at compound concentration (CDK12–cyclin K and DDB1; compound concentration 21.6 nM): 0.1368 and 0.1484; TR-FRET signal at compound concentration (CDK12–cyclin K and DDB1; compound concentration 36 nM): 0.135 and 0.1532; TR-FRET signal at compound concentration (CDK12–cyclin K and DDB1; compound concentration 79.2001 nM): 0.1341 and 0.1519; TR-FRET signal at compound concentration (CDK12–cyclin K and DDB1; compound concentration 158.4 nM): 0.132 and 0.1491; TR-FRET signal at compound concentration (CDK12–cyclin K and DDB1; compound concentration 309.6 nM): 0.1322 and 0.1487; TR-FRET signal at compound concentration (CDK12–cyclin K and DDB1; compound concentration 626.401 nM): 0.1292 and 0.1438; TR-FRET signal at compound concentration (CDK12–cyclin K and DDB1; compound concentration 1252.8 nM): 0.1234 and 0.1372; TR-FRET signal at compound concentration (CDK12–cyclin K and DDB1; compound concentration 2448 nM): 0.1186 and 0.1335; TR-FRET signal at compound concentration (CDK12–cyclin K and DDB1; compound concentration 9936.01 nM): 0.1139 and 0.1272; TR-FRET signal at compound concentration (CDK12–cyclin K and DDB1; compound concentration 20016 nM): 0.1066 and 0.1169; DDB1–CDK12 complex formation, result in words (CDK12–cyclin K and DDB1; in vitro TR-FRET): abolished binding
253 | 0.256 and 0.2516 | 0.3133 and 0.3182 | 0.4047 and 0.4311 | 0.6615 and 0.6381 | 1.045 and 0.9914 | 1.635 and 1.536 | 2.287 and 2.228 | 2.838 and 2.826 | 3.127 and 3.261 | 3.39 and 3.672 | 3.566 and 3.699 | 46 ± 2 | 45.7 | 45.7 | CC[C@H](CO)Nc1nc(NCCCc2cccc(F)c2)c2ncn(C(C)C)c2n1 [DS29] | 452 | 713 | % MLN4924 rescue (HEK293T cells; PCA input): 669%
2020 | – | – | – | – | – | – | – | – | – | – | – | 948 ± 61 | 948 | 948 | CC(C)n1cnc2c(NCc3ccc(-c4ccccn4)cc3)nc(N[C@@H](Cc3ccc(OCc4ccccc4)cc3)c3nnc[nH]3)nc21 [DS58] | 1780 | 461 | TR-FRET signal at compound concentration 4.68 nM (CDK12–cyclin K and DDB1; compound concentration 4.68 nM, raw titration data): 0.2093 and 0.2396; TR-FRET signal at compound concentration 21.6 nM (CDK12–cyclin K and DDB1; compound concentration 21.6 nM, raw titration data): 0.2345 and 0.3021; TR-FRET signal at compound concentration 36 nM (CDK12–cyclin K and DDB1; compound concentration 36 nM, raw titration data): 0.286 and 0.3105; TR-FRET signal at compound concentration 79.2001 nM (CDK12–cyclin K and DDB1; compound concentration 79.2001 nM, raw titration data): 0.3776 and 0.414; TR-FRET signal at compound concentration 158.4 nM (CDK12–cyclin K and DDB1; compound concentration 158.4 nM, raw titration data): 0.5529 and 0.574; TR-FRET signal at compound concentration 309.6 nM (CDK12–cyclin K and DDB1; compound concentration 309.6 nM, raw titration data): 0.8665 and 0.8767; TR-FRET signal at compound concentration 626.401 nM (CDK12–cyclin K and DDB1; compound concentration 626.401 nM, raw titration data): 1.353 and 1.369; TR-FRET signal at compound concentration 1252.8 nM (CDK12–cyclin K and DDB1; compound concentration 1252.8 nM, raw titration data): 2.037 and 2.014; TR-FRET signal at compound concentration 2448 nM (CDK12–cyclin K and DDB1; compound concentration 2448 nM, raw titration data): 2.68 and 2.699; TR-FRET signal at compound concentration 9936.01 nM (CDK12–cyclin K and DDB1; compound concentration 9936.01 nM, raw titration data): 3.329 and 3.445; TR-FRET signal at compound concentration 20016 nM (CDK12–cyclin K and DDB1; compound concentration 20016 nM, raw titration data): 3.076 and 3.1; EC50 (HEK293T cells; Supplementary Fig. 5, HEK293T, CellTiter Glo, 72h, read-out: Viability EC50, no MLN4924): 1750 nM
